For assay [1], the system named is S. aureus ATCC BAA-2312 (Sa 12). As to the kind of experiment: MIC, broth microdilution, Sa 12. It counts as cell-based. Particulars: Staphylococcus aureus, ATCCBAA2312; Table 2, HTM series; read-out: Minimum inhibitory concentration (MIC) Sa 12. The procedure: (§1) The broth microdilution method was utilized to determine MIC values of novel thiazole derivatives against different clinically important Gram-positive bacteria according to the guidelines outlined by the Clinical and Laboratory Standards Institute (CLSI) as reported in our recent papers.^1-5 The starting concentration of compounds for MIC determination was 64 μg/mL serially diluted down the wells and the MIC values were recorded in duplicates in three independent experiments on different days.

Assay [2] has as its system S. aureus ATCC 25923 (Sa 23). The assay is described as follows: MIC, broth microdilution, Sa 23. It counts as cell-based. Conditions: Staphylococcus aureus, ATCC25923, Table 2, HTM series; read-out: Minimum inhibitory concentration (MIC) Sa 23. On the procedure: as §1
On the technique in general: Broth dilution looks for growth in wells or tubes with falling amounts of substance.

Assay [3] deals with E. faecalis ATCC 51299 (Efs 99). As to the kind of experiment: MIC, broth microdilution, Efs 99. The assay is classed as cell-based. Conditions: Enterococcus faecalis, ATCC51299; Table 2, HTM series; read-out: Minimum inhibitory concentration (MIC) Efs 99. On the procedure:
as §1

Assay [4] concerns Sa UAMS-1 MRSA ATCC 49230 (Sa UAMS). As to the kind of experiment: MIC, broth microdilution, Sa UAMS. The assay is classed as cell-based, S. aureus. Particulars: Staphylococcus aureus; Table 2, HTM series; read-out: Minimum inhibitory concentration (MIC) Sa UAMS-1. On the procedure: as §1
Assay [5] concerns S. aureus ATCC 700699 (Sa 99). As to the kind of experiment: MIC, broth microdilution, Sa 99. It counts as cell-based. Conditions: Staphylococcus aureus, ATCC700699, Table 2, HTM series; read-out: Minimum inhibitory concentration (MIC) Sa 99. The procedure:
as §1

For assay [6], the system named is E. faecium ATCC 700221 (Efm 21). As to the kind of experiment: MIC, broth microdilution, Efm 21. The assay is classed as cell-based. Particulars: Enterococcus faecium, ATCC700221, Table 2, HTM series; read-out: Minimum inhibitory concentration (MIC) Efm 21. The procedure: as §1
Assay [7] deals with S. aureus subsp. aureus Rosenbach BAA-1717 (Sa USA 300). The assay is described as follows: MIC, broth microdilution, Sa USA 300. Particulars: Staphylococcus aureus; Table 2, HTM series; read-out: Minimum inhibitory concentration (MIC) Sa USA 300. The assay is classed as cell-based. The procedure: as §1
Assay [8] relates to E. faecalis ATCC 29212 (Efs 12). The assay is described as follows: MIC, broth microdilution, Efs 12. The assay is classed as cell-based. Particulars: Enterococcus faecalis, ATCC29212, Table 2, HTM series; read-out: Minimum inhibitory concentration (MIC) Efs 12. The procedure: as §1
The test system of assay [9] is S. aureus ATCC 33592 (Sa 92). The assay is described as follows: MIC, broth microdilution, Sa 92. The assay is classed as cell-based. Conditions: Staphylococcus aureus, ATCC33592; Table 2, HTM series; read-out: Minimum inhibitory concentration (MIC) Sa 92. The procedure:
as §1

Assay [10] relates to S. aureus subsp. aureus Rosenbach ATCC 25904 (SA Newman). As to the kind of experiment: MIC, broth microdilution, SA Newman. It counts as cell-based. Particulars: Staphylococcus aureus; Table 2, HTM series; read-out: Minimum inhibitory concentration (MIC) Sa Newman. The procedure:
as §1

For assay [11], the system named is S. aureus ATCC 33591 (Sa 91). As to the kind of experiment: MIC, broth microdilution, Sa 91. The assay is classed as cell-based. Particulars: Staphylococcus aureus, ATCC33591; Table 2, HTM series; read-out: Minimum inhibitory concentration (MIC) Sa 91. The procedure:
as §1

In assay [12] the test system is S. epidermidis ATCC 700296 (Se). As to the kind of experiment: MIC, broth microdilution, Se. The assay is classed as cell-based. Particulars: Staphylococcus epidermidis, ATCC700296; Table 2, HTM series; read-out: Minimum inhibitory concentration (MIC) Se. On the procedure:
as §1

Converted amounts (≈) assume the structure as drawn.

For the molecule `Oc1ccc(-c2csc(-c3ccc(Cl)c(Cl)c3)n2)cc1` [Compound 65, 4-(2-(3,4-dichlorophenyl)thiazol-4-yl)phenol], the MIC in assay [1] was 1 µg/mL (≈ 3.1 µM); in assay [2] it was 1 µg/mL (≈ 3.1 µM); in [3], 2 µg/mL (≈ 6.21 µM); in [4], 2 µg/mL (≈ 6.21 µM); in assay [5], 1 µg/mL (≈ 3.1 µM); in assay [6] it was 2 µg/mL (≈ 6.21 µM). Also, the MIC in [7] is 1 µg/mL (≈ 3.1 µM); in assay [8] it was 2 µg/mL (≈ 6.21 µM); in [9] it was 1 µg/mL (≈ 3.1 µM); in assay [10], 2 µg/mL (≈ 6.21 µM); in [11], 1 µg/mL (≈ 3.1 µM); in assay [12], 1 µg/mL (≈ 3.1 µM).

On to `Cc1ccc(Nc2nc(-c3ccc(O)cc3)cs2)cc1Cl` [Compound 67, 4-(2-((3-chloro-4-methylphenyl)amino)thiazol-4-yl)phenol], for which the MIC was found to be 4 µg/mL (≈ 12.6 µM) in assay [1]; 4 µg/mL (≈ 12.6 µM) in assay [2]; 8 µg/mL (≈ 25.3 µM) in [3]; 4 µg/mL (≈ 12.6 µM) in assay [4]; 4 µg/mL (≈ 12.6 µM) in assay [5]; 4 µg/mL (≈ 12.6 µM) in assay [6]. The MIC was found to be 4 µg/mL (≈ 12.6 µM) in assay [7]; 8 µg/mL (≈ 25.3 µM) in assay [8]; 4 µg/mL (≈ 12.6 µM) in [9]; 4 µg/mL (≈ 12.6 µM) in [10]; 8 µg/mL (≈ 25.3 µM) in assay [11]; 4 µg/mL (≈ 12.6 µM) in assay [12].

Take `Oc1ccc(-c2csc(Nc3cc(Cl)c(Cl)cc3Cl)n2)cc1` [Compound 69, 4-(2-((2,4,5-trichlorophenyl)amino)thiazol-4-yl)phenol]: the MIC in assay [1] was determined as 1 µg/mL (≈ 2.69 µM); in [2] it was 1 µg/mL (≈ 2.69 µM); in assay [3], 4 µg/mL (≈ 10.8 µM); in assay [4], 4 µg/mL (≈ 10.8 µM); in [5], 1 µg/mL (≈ 2.69 µM); in [6], 4 µg/mL (≈ 10.8 µM). Moreover, the MIC stood at 4 µg/mL (≈ 10.8 µM) in assay [7]; 4 µg/mL (≈ 10.8 µM) in [8]; 1 µg/mL (≈ 2.69 µM) in [9]; 4 µg/mL (≈ 10.8 µM) in [10]; 1 µg/mL (≈ 2.69 µM) in assay [11]; 8 µg/mL (≈ 21.5 µM) in assay [12].

Regarding `Oc1ccc(-c2csc(Nc3cc(Cl)ccc3Cl)n2)cc1` [Compound 73, 4-(2-((2,5-dichlorophenyl)amino)thiazol-4-yl)phenol], the MIC in [1] worked out at 4 µg/mL (≈ 11.9 µM); in [2], 4 µg/mL (≈ 11.9 µM); in assay [3] it was 8 µg/mL (≈ 23.7 µM); in [4], 4 µg/mL (≈ 11.9 µM); in assay [5], 4 µg/mL (≈ 11.9 µM); in assay [6] it was 8 µg/mL (≈ 23.7 µM). The MIC in assay [7], in assay [8], in assay [9], in [10], in [11] and in assay [12] was 4 µg/mL (≈ 11.9 µM) throughout.

As to `Oc1ccc(-c2csc(Nc3ccc(Cl)c(Cl)c3)n2)cc1O` [Compound 74, 4-(2-((3,4-dichlorophenyl)amino)thiazol-4-yl)benzene-1,2-diol], the MIC in assay [1] amounted to 4 µg/mL (≈ 11.3 µM); in assay [2], 4 µg/mL (≈ 11.3 µM); in assay [3], 8 µg/mL (≈ 22.6 µM); in [4], 8 µg/mL (≈ 22.6 µM); in [5], 4 µg/mL (≈ 11.3 µM); in assay [6], 4 µg/mL (≈ 11.3 µM). Also, the MIC turned out to be 8 µg/mL (≈ 22.6 µM) in assay [7]; 8 µg/mL (≈ 22.6 µM) in [8]; 4 µg/mL (≈ 11.3 µM) in assay [9]; 8 µg/mL (≈ 22.6 µM) in assay [10]; 8 µg/mL (≈ 22.6 µM) in assay [11]; 4 µg/mL (≈ 11.3 µM) in assay [12].

For `Oc1ccc(-c2csc(Nc3ccc(Cl)c(Cl)c3)n2)cc1` [Compound 75, 4-(2-((3,4-dichlorophenyl)amino)thiazol-4-yl)phenol], the MIC in assay [1] is 2 µg/mL (≈ 5.93 µM); in [2], 2 µg/mL (≈ 5.93 µM); in assay [3] it was 4 µg/mL (≈ 11.9 µM); in assay [4], 2 µg/mL (≈ 5.93 µM); in assay [5], 2 µg/mL (≈ 5.93 µM); in assay [6] it was 4 µg/mL (≈ 11.9 µM). Besides, the MIC in assay [7] is 2 µg/mL (≈ 5.93 µM); in [8], 4 µg/mL (≈ 11.9 µM); in assay [9], 2 µg/mL (≈ 5.93 µM); in assay [10] it was 4 µg/mL (≈ 11.9 µM); in assay [11] it was 2 µg/mL (≈ 5.93 µM); in assay [12], 2 µg/mL (≈ 5.93 µM).
